According to patent publication US9938301B2, “Dihydropyrimido fused ring derivative as HBV inhibitor” (QILU PHARMACEUTICAL CO., LTD., priority 2014, dated 2018):
Read-outs that look alike come from different tables or passages of the source.

System: HBV DNA in HepG2.2.15 cells
Assay: HBV in vitro dot-blot hybridization test
Assay type: cell-based, Hepatitis B virus
Procedure: • 1. Purpose of the test: • The content of HBV DNA in HepG2.2.15 cells was detected by dot-blot hybridization test to evaluate an inhibitory action of the compound on HBV with an EC50 value as an indicator. • 2. Experimental materials: • 2.1 Cell lines: HepG2.2.15 Cells • HepG2.2.15 cell culture media (DMEM/F12, Invitrogen-11330057; 10% serum Invitrogen-10099141; 100 units/mL Penicillin and 10 μg/mL Streptomycin, Invitrogen-15140122; 1% non-essential amino acid, Invitrogen-11140076; 2 mM L-GLUTAMINE, Invitrogen-25030081; 300 µg/ml Geneticin, Invitrogen-10131027 • 2.2 Reagents: • Trypsin (I Invitrogen-25300062) • DPBS (Hyclone-SH30028.01B) • DMSO (Sigma-D2650-100ML) • 96-well cell-culture plate (Corning-3599) • CO2 incubator (HERA-CELL-240) • 20×SSC (Bio-serve Co. Ltd) • Tris-HCl (Aldirch-154563-1KG) • NaOH (Sinopharm 10019718) • NaCl (Sinopharm 10019308) • Hybridization solution (Major BioTech Co. Ltd, IMMUNE GOLD-HYB-500) • DIG Wash and Block Buffer set (Roche-11585762001) • Anti-digoxigenin-AP, Fab fragments from sheep (Roche-11093274910) • 2.3 Materials and Instruments: • Positively-Charged Nylon Membrane (GE-RPN2250B) • Transfer Membrane Instrument (Bio-Rad, 170-6545) • Hybridization Oven (HL-2000 Hybrilinker) • 3. Testing steps and Methods: • 3.1 HepG2.2.15 cells (4×10^4 cells/well) were planted into a 96-well plate, and at 37° C., 5% CO2 cultured overnight. • 3.2 On Day 2, the compounds were diluted in totally 6 concentrations with a dilution gradient of five times. The compounds at different concentrations were added into the culture wells in duplicate. The final concentration of DMSO in the culture media was 1%. 1 μM GLS4 was used as 100% inhibition control; 1% DMSO as 0% inhibition control. • 3.3 On Day 5, replacing with the fresh culture media containing the compound was performed. • 3.4 On Day 8 and Day 9, the culture media in the culture wells was removed, and the cells were harvested for dot-blot hybridization. • The lysate was added into a culture well, and at 37° C. incubating for half an hour to disintegrate cells; the supernatant was obtained by centrifugation and transferred into a new microplate; a denaturation solution was added, after sufficient mixing the denatured sample was transferred and imprinted onto a Nylon membrane, the nucleic acid was fixed onto the membrane by UV cross-linking. • Pre-hybridization: the membrane was incubated at 60° C. in a hybridization solution for 1 hour. • Hybridization: heating the denatured digoxin-labelled HBV DNA probe and incubating at 60° C. overnight. • Membrane Washing: performing high strigency washing twice, low strigency washing for 3 times. • Blocking: incubating the membrane at room temperature in a blocking solution for 30-60 minutes. • Hybridization: diluting the Antibody Solution with the blocking solution, in which the membrane was placed and incubated at room temperature for 30-60 minutes. • Developing: washing the membrane in a Detection Buffer for 5 minutes, followed by adding a developing solution, pressing and exposing. • The photos was saved in tiff format, and a gray value of the dot was quantified with quantity one software. • 3.5 Data Analysis: • 3.5.1 The inhibition percentage was calculated: % Inh.=[1−(sample dot gray value−1 μM GLS4 dot gray value 1)/(DMSO control dot gray value−1 μM GLS4 dot gray value 1)]×100. • 3.5.2 Calculating EC50: the concentration of the compound for 50% inhibition of HBV (EC50) was calculated by using GraphPad Prism Software. • 4.

[1] = Hepatitis B virus, HepG2.2.15, dot-blot hybridization assay, read-out: Concentration for 50% inhibition of HBV (EC50)value
[2] = Hepatitis B virus, HepG2.2.15, summary list of target compounds, Examples 1-165 (same as Table 2), read-out: BIOACTIVITY (inhibitory actions on HBV DNA, EC50)
[3] = summary list of target compounds, Examples 1-165 (same as Table 2), read-out: BIOACTIVITY (inhibitory actions on HBV DNA, EC50)

Structure (SMILES) | EC50 [1] | EC50 [2] | EC50 [3] | EC50 (dot-blot hybridization assay, read-out: Concentration for 50% inhibition of HBV (EC50)value) | EC50 (Hepatitis B virus, HepG2.2.15, read-out: BIOACTIVITY (inhibitory actions on HBV DNA, EC50), summary list of target compounds, Examples 1-165 (same as Table 2))
CCOC(=O)C1=C2C[C@H](N3CCCC3C(=O)OC)CN2C(c2nccs2)=N[C@H]1c1ccc(F)cc1Cl (stereo partly shown) [Example 131] | 1000 to 5000 nM | 1000 to 5000 nM |  |  | 
CCOC(=O)C1=C2CNCCN2C(c2nccs2)=NC1c1ccc(F)cc1Br (racemic) [Example 83] | 1000 to 5000 nM | 1000 to 5000 nM |  |  | 
CCOC(=O)C1=C2CC(NS(=O)(=O)C(F)(F)F)CN2C(c2nccs2)=N[C@H]1c1ccc(F)cc1Br (stereo partly shown) [Example 63] | 100 to 500 nM | 100 to 500 nM |  |  | 
CCOC(=O)C1=C2C[C@H](CNC(C)=O)CN2C(c2nccs2)=N[C@H]1c1ccc(F)cc1Br [Example 120] | < 100 nM | < 100 nM |  |  | 
CCS(=O)(=O)N[C@H]1CC2=C(C(=O)OC)[C@H](c3ccc(F)cc3Cl)N=C(c3nccs3)N2C1 [Example 158] | < 100 nM | < 100 nM |  |  | 
CCOC(=O)C1=C2CN(Cc3cocn3)CCN2C(c2nccs2)=NC1c1ccc(F)cc1Br (stereo not shown) [Example 100] | 1000 to 5000 nM | 1000 to 5000 nM |  |  | 
CCOC(=O)C1=C2[C@H](NS(C)(=O)=O)CCN2C(c2nccs2)=N[C@H]1c1ccc(F)cc1Br [Example 147] | 1000 to 5000 nM | 1000 to 5000 nM |  |  | 
CCOC(=O)C1=C2C[C@H](NS(=O)(=O)c3cnn(C)c3)CN2C(c2nccs2)=N[C@H]1c1ccc(F)cc1Cl [Example 132] | < 100 nM | < 100 nM |  |  | 
CCOC(=O)C1=C2C[C@@H](CO)CN2C(c2nccs2)=NC1c1ccc(F)cc1Br (mixture of isomers) [Example 9] |  |  | 100 to 500 nM |  | 
CCOC(=O)C1=C2C[C@@H](C(N)=O)CN2C(c2nccs2)=NC1c1ccc(F)cc1Br (mixture of isomers) [Example 28] | 100 to 500 nM | 100 to 500 nM |  |  | 
CCOC(=O)C1=C2CN(C(=O)C3(C)COC3)CCN2C(c2nccs2)=N[C@H]1c1ccc(F)cc1Br [Example 90] | 100 to 500 nM | 100 to 500 nM |  |  | 
CCOC(=O)C1=C2CN(C(=O)OC)CCN2C(c2nccs2)=N[C@H]1c1ccc(F)cc1Br [Example 85] | 100 to 500 nM | 100 to 500 nM |  |  | 
COC(=O)C1=C2C[C@H](NS(C)(=O)=O)CN2C(c2nccs2)=N[C@H]1c1ccc(F)c(Cl)c1 [Example 164] | 1000 to 5000 nM | 1000 to 5000 nM |  |  | 
CCOC(=O)C1=C2C[C@H](CNS(=O)(=O)C3CC3)CN2C(c2nccs2)=N[C@H]1c1ccc(F)cc1Br [Example 121] | < 100 nM | < 100 nM |  |  | 
CCOC(=O)C1=C2C[C@H](NS(=O)(=O)C3COC3)CN2C(c2nccs2)=N[C@H]1c1ccc(F)cc1Cl [Example 144] | < 100 nM | < 100 nM |  |  | 
CCOC(=O)C1=C2CN(C)S(=O)(=O)CN2C(c2nccs2)=N[C@H]1c1ccc(F)cc1Br [Example 136] | 500 to 1000 nM | 500 to 1000 nM |  |  | 
CCOC(=O)C1=C2C[C@@H](CNC(C)=O)CN2C(c2nccs2)=N[C@H]1c1ccc(F)cc1Br [Example 119] | < 100 nM | < 100 nM |  |  | 
CCOC(=O)C1=C2C[C@@H](CC(=O)O)CN2C(c2nccs2)=N[C@H]1c1ccc(F)cc1Br [Example 13] | 100 to 500 nM | 100 to 500 nM |  |  | 
CCOC(=O)C1=C2CC(NS(=O)(=O)C3CC3)CN2C(c2nccs2)=N[C@H]1c1ccc(F)cc1Br (stereo partly shown) [Example 61] | < 100 nM | < 100 nM |  |  | 
CCOC(=O)C1=C2CCCN2C(c2nc(C)cs2)=NC1c1ccc(F)cc1Cl (racemic) [Example 79] | 1000 to 5000 nM | 1000 to 5000 nM |  |  | 
CCOC(=O)C1=C2C[C@H](N(C)S(=O)(=O)NC)CN2C(c2nccs2)=N[C@H]1c1ccc(F)cc1Br [Example 56] | < 100 nM | < 100 nM |  |  | 
CCOC(=O)C1=C2C[C@@H](C#N)CN2C(c2nccs2)=NC1c1ccc(F)cc1Br (mixture of isomers) [Example 26] |  |  | 500 to 1000 nM | 500 to 1000 nM | 

Structure (SMILES) | EC50 [1] | EC50 [2] | EC50 [3] | EC50 (dot-blot hybridization assay, read-out: Concentration for 50% inhibition of HBV (EC50)value) | EC50 (Hepatitis B virus, HepG2.2.15, read-out: BIOACTIVITY (inhibitory actions on HBV DNA, EC50), summary list of target compounds, Examples 1-165 (same as Table 2))
CCOC(=O)C1=C2C[C@H](NS(=O)(=O)C(C)C)CN2C(c2nccs2)=N[C@H]1c1ccc(F)cc1Br [Example 117] | < 100 nM | < 100 nM |  |  | 
CCOC(=O)C1=C2C[C@H](N3CCOCC3)CN2C(c2nccs2)=N[C@H]1c1ccc(F)cc1Cl [Example 130] | < 100 nM | < 100 nM |  |  | 
CCOC(=O)C1=C2C[C@@H](NS(C)(=O)=O)CN2C(c2nccs2)=N[C@H]1c1ccc(F)cc1Cl [Example 126] | < 100 nM | < 100 nM |  |  | 
CCOC(=O)C1=C2COCCN2C(c2nccs2)=NC1c1ccc(F)cc1Br (racemic) [Example 110] | 1000 to 5000 nM | 1000 to 5000 nM |  |  | 
COC(=O)C1=C2C[C@H](NS(C)(=O)=O)CN2C(c2nccs2)=N[C@H]1c1cccc(F)c1Cl [Example 165] | < 100 nM | < 100 nM |  |  | 
CCOC(=O)C1=C2CNS(=O)(=O)CN2C(c2nccs2)=N[C@H]1c1ccc(F)cc1Br [Example 135] | 500 to 1000 nM |  |  |  | 500 to 1000 nM
CCOC(=O)C1=C2C[C@H](NC(=O)C(F)F)CN2C(c2nccs2)=N[C@H]1c1ccc(F)cc1Cl [Example 133] | 100 to 500 nM | 100 to 500 nM |  |  | 
CCOC(=O)C1=C2C[C@@H](CS(C)(=O)=O)CN2C(c2nccs2)=N[C@H]1c1ccc(F)cc1Br [Example 113] | 100 to 500 nM | 100 to 500 nM |  |  | 
CCOC(=O)C1=C2CN(CC(=O)O)CCN2C(c2nccs2)=N[C@H]1c1ccc(F)cc1Br [Example 99] | 1000 to 5000 nM | 1000 to 5000 nM |  |  | 
CCOC(=O)C1=C2C[C@H](C#N)CN2C(c2nccs2)=N[C@H]1c1ccc(F)cc1Cl [Example 24] | 500 to 1000 nM | 500 to 1000 nM |  |  | 
CCOC(=O)C1=C2C[C@H](NC(=O)C3COC3)CN2C(c2nccs2)=N[C@H]1c1ccc(F)cc1Cl [Example 139] | 1000 to 5000 nM | 1000 to 5000 nM |  |  | 
CCOC(=O)C1=C2C[C@@H](CN3CCC[C@H]3C(=O)OC)CN2C(c2nccs2)=N[C@H]1c1ccc(F)cc1Br [Example 21] | 1000 to 5000 nM | 1000 to 5000 nM |  |  | 
COC(=O)C1=C2C[C@H](NC(C)=O)CN2C(c2nccs2)=N[C@H]1c1ccc(F)cc1Cl [Example 162] | 100 to 500 nM | 100 to 500 nM |  |  | 
CCOC(=O)C1=C2C[C@H](NS(C)(=O)=O)CN2C(c2nccs2)=N[C@H]1c1ccc(F)cc1F [Example 138] | < 100 nM | < 100 nM |  |  | 
CCOC(=O)C1=C2[C@@H](C(N)=O)CCN2C(c2nccs2)=N[C@H]1c1ccc(F)cc1Cl (racemic) [Example 3] | 100 to 500 nM | 100 to 500 nM |  |  | 
CCOC(=O)C1=C2C(N(C)CCO)CCN2C(c2nccs2)=NC1c1ccc(F)cc1Cl (racemic) [Example 2] | 1000 to 5000 nM | 1000 to 5000 nM |  |  | 
CCOC(=O)C1=C2CN(Cc3ccc(OC)cc3)S(=O)(=O)CN2C(c2nccs2)=N[C@H]1c1ccc(F)cc1Br [Example 134] | 1000 to 5000 nM | 1000 to 5000 nM |  |  | 
CCOC(=O)C1=C2CCCN2C(c2nccs2)=NC1c1ccc(F)cc1F (racemic) [Example 72] | 500 to 1000 nM | 500 to 1000 nM |  |  | 
CCNC(=S)N1CCN2C(c3nccs3)=N[C@@H](c3ccc(F)cc3Br)C(C(=O)OCC)=C2C1 [Example 103] | 100 to 500 nM | 100 to 500 nM |  |  | 
CCOC(=O)C1=C2CN(CC(=O)OC)C(=O)CN2C(c2nccs2)=N[C@H]1c1ccc(F)cc1Br [Example 106] | 1000 to 5000 nM | 1000 to 5000 nM |  |  | 
CCOC(=O)C1=C2C[C@H](NC(=O)NC)CN2C(c2nccs2)=N[C@H]1c1ccc(F)cc1Br [Example 53] | < 100 nM | < 100 nM |  |  | 
